Laboratory results taken from paper PMC10023787, “Trio-pharmacophore DNA-encoded chemical library for simultaneous selection of fragments and linkers” (Nature Communications, 2023).
“Also recorded” adds a separate entry of the source. Like-named read-outs stand apart in the source and are kept apart here.

Tests used:
MMP-9 = target: T1, MMP-9 (Homo sapiens, UniProt P14780); assay: Dynamic dual-pharmacophore DEL selection against MMP-9, NGS decoding; assay type: binding; details: MMP9 selection; for MMP9 3L Enrichment Fold: 3L library (Supplementary fig 13); for MMP9 3L Count: 3L library; for MMP9 3L Count / MMP9 5L Count: sequence count (Supplementary fig 13); for MMP9 5L Enrichment Fold: 5L library (Supplementary fig 13); for MMP9 5L Count: 5L library
T1 construct: purchased Sino Biological 10327-HNAH
T1 sequence (P14780 107-707 limits assumed): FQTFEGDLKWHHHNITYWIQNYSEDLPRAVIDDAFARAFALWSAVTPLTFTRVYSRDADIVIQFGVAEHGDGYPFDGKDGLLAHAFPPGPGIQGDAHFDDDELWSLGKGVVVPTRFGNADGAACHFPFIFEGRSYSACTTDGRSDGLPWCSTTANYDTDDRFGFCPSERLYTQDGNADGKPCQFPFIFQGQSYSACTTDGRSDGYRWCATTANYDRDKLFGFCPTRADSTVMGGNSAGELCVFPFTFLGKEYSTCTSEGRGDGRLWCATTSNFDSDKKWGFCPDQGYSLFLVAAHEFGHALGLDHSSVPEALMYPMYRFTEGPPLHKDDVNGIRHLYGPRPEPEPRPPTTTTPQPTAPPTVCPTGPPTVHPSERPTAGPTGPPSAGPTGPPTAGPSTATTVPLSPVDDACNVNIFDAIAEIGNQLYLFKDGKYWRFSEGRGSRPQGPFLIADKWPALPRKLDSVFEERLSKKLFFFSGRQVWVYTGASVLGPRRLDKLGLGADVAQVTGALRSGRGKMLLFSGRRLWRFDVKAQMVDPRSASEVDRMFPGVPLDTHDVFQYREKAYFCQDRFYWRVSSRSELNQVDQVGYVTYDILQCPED
From the text: Matrix metalloproteinases (MMPs) are zinc-dependent endopeptidases capable of degrading and remodeling extracellular matrix components[46],[47]. They are attractive therapeutic targets as high expression levels were detected in various diseases, such as inflammatory diseases, and at different stages of cancers, including metastasis, invasion, and angiogenesis[47]–[53]. As shown in Supplementary Fig. 3c, we performed selections against the two gelatinases (human MMP-2 and human MMP-9) to identify binding fragments for later design and synthesis of small molecule inhibitors. After selection, the three sub-libraries were decoded, and the enrichment was calculated by dividing the post-selection fraction (count/total counts) by the pre-selection fraction (Fig. 4a and Supplementary Fig. 13).
4 µg of MMP-2/MMP-9 was dissolved in 100 µl of selection buffer containing 25 mM Tris-base, 10 mM CaCl2, 150 mM NaCl, 0.05% Tween 20, pH 7.5. 10 µl of 4-Aminophenylmercuric acetate (APMA) (100 mM) solution was added to the protein solution and incubated at 37 °C for 1 h. After activation, the solution was added on top of 40 µl pre-washed Ni-NTA resin and incubated for 30 min on a rotary shaker. The supernatant was discarded, and the resin was washed three times with the selection buffer.
For each independent selection, three sub-libraries were mixed in the selection buffer with a final concentration of 40 nM of each sub-library in 100 µl. The mixture was heat denatured at 90 °C for 1 min and slowly cooled down to allow the formation of the trio-pharmacophore library. The dynamic dual-pharmacophore DEL was provided by DyNAbind GmbH (Merck, DYNA001).
The assembled library was incubated with the protein-bound solid support for 2 h at RT on a rotary shaker. In parallel, selection on bare solid support served as the negative control to exclude promiscuous binders on the resin. After panning, the supernatant was discarded, and the resin was washed three times with 1 ml selection buffer. Finally, 100 µl of 50 mM Tris buffer, pH 7.4 was added to resuspend the resin and the resin was incubated at 95 °C for 5 min to denature the protein, release, and collect the bound library members.
The eluted library members were subjected to sample preparation for NGS. NGS preparation was achieved by two-step PCR. First, the individual selection was indexed using primers containing unique sequences corresponding to each selection. The amplified product was purified from 2% agarose gel. Second, the purified DNA from all selections were pooled in equal amount and subjected to the 2nd PCR step to attach sequences compatible with the NGS flow cell and the sequencing primers. NGS was performed by Novogene UK with Novaseq 6000. Raw data files (fastq files) obtained were decoded using a custom python script and excel. The sequence reads corresponding to each sample was retrieved by searching for the correct index unique to each selection. Then, the code region was extracted from each sequence and assigned to the corresponding identity. The count of each code in each selection sample was obtained by looping through the total reads and counting the occurrence of each code. The enrichment fold of each compound was calculated by first, dividing the count by the total count to get the abundance, second, the abundance after the selection was divided by the abundance of pre-selection to reflect the distribution change of the compound. Next, the enrichment fold was plotted against the count for each member of the library to give the scatter plots as in Fig. 4.

MMP-2 = target: T2, MMP-2 (Homo sapiens, UniProt P08253); assay: MMP-2 inhibition assay (fluorogenic peptide substrate); assay type: biochemical; details: for inhibitory effect: in words
T2 construct: purchased Sino Biological 10082-HNAH
T2 sequence (P08253 110-660): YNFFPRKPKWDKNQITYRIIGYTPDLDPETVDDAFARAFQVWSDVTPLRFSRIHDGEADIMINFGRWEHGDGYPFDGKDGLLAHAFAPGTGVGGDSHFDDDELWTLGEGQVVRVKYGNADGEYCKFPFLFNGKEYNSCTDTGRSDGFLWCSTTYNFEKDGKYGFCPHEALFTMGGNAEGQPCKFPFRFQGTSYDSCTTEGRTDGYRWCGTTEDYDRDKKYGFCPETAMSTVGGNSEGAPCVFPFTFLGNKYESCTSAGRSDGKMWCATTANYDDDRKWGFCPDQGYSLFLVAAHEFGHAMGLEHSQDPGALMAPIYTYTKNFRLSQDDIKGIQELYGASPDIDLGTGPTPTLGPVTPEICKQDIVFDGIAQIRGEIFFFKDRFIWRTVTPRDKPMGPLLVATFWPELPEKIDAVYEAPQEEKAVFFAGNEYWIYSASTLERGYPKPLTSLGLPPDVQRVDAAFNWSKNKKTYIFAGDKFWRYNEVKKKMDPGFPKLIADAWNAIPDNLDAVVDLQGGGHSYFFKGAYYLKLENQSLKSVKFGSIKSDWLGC
Outline: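 Hydrolysis of DNP-Pro-Leu-Gly-Met-Trp-Ser-Arg (25 μM final) was tracked kinetically at em 360 nm over 30 min. Enzymes, APMA-activated and at 10 nM (MMP-9) or 6.5 nM (MMP-2) final, sat 30 min at RT with inhibitor in pH 7.5 Tris buffer with CaCl2 and Brij 35 first. Logistic fitting of Vmax against concentration gave IC50, in triplicate.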

[1] = MMP-2, concentration 1.95 µM, read-out: Mean (MMP-2 dose-response, Supplementary fig 15)

SMILES: Cn1c(O)nc2cc(C(=O)O)cnc21 [Compound 826]
- MMP9 3L Enrichment Fold (MMP-9): 4.359
- MMP9 3L Count (MMP-9): 10836
- MMP9 5L Enrichment Fold (MMP-9): 1.703
- MMP9 5L Count (MMP-9): 1619
- remaining activity at 0.0305176 µM (MMP-2; Figure 5a, fragment concentration 0.0305176 µM, read-out: Normalized activity (Mean)): 105%
- remaining activity at 0.12207 µM (MMP-2; Figure 5a, fragment concentration 0.12207 µM, read-out: Normalized activity (Mean)): 112%
- remaining activity at 0.488281 µM (MMP-2; Figure 5a, fragment concentration 0.488281 µM, read-out: Normalized activity (Mean)): 97.4%
- remaining activity at 1.95312 µM (MMP-2; Figure 5a, fragment concentration 1.95312 µM, read-out: Normalized activity (Mean)): 96.2%
- remaining activity at 7.8125 µM (MMP-2; Figure 5a, fragment concentration 7.8125 µM, read-out: Normalized activity (Mean)): 103%
- remaining activity at 31.25 µM (MMP-2; Figure 5a, fragment concentration 31.25 µM, read-out: Normalized activity (Mean)): 92.9%
- remaining activity at 125 µM (MMP-2; Figure 5a, fragment concentration 125 µM, read-out: Normalized activity (Mean)): 97.7%
- remaining activity at 500 µM (MMP-2; Figure 5a, fragment concentration 500 µM, read-out: Normalized activity (Mean)): 89.5%
- remaining activity at 0.12 µM (MMP-2; MMP-2, concentration 0.12 µM, read-out: Mean (MMP-2, Supplementary fig 16)): 112%
- remaining activity at 0.49 µM (MMP-2; MMP-2, concentration 0.49 µM, read-out: Mean (MMP-2, Supplementary fig 16)): 97.4%
- remaining activity at 1.95 µM (MMP-2; MMP-2, concentration 1.95 µM, read-out: Mean (MMP-2, Supplementary fig 16)): 96.2%
- remaining activity at 7.81 µM (MMP-2; MMP-2, concentration 7.81 µM, read-out: Mean (MMP-2, Supplementary fig 16)): 103%
- remaining activity at 31.25 µM (MMP-2; MMP-2, concentration 31.25 µM, read-out: Mean (MMP-2, Supplementary fig 16)): 92.9%
- remaining activity at 125 µM (MMP-2; MMP-2, concentration 125.00 µM, read-out: Mean (MMP-2, Supplementary fig 16)): 97.7%
- remaining activity at 500 µM (MMP-2; MMP-2, concentration 500.00 µM, read-out: Mean (MMP-2, Supplementary fig 16)): 89.5%
- remaining activity at 0.12 µM (MMP-2; MMP-2, concentration 0.12 µM, read-out: Mean (MMP-2 dose-response, Supplementary fig 15)): 112%
- remaining activity at 0.12 µM (MMP-2; MMP-2, concentration 0.12 µM, read-out: Mean (dose-response, Supplementary fig 17)): 112%
- remaining activity at 0.49 µM (MMP-2; MMP-2, concentration 0.49 µM, read-out: Mean (MMP-2 dose-response, Supplementary fig 15)): 97.4%
- remaining activity at 0.49 µM (MMP-2; MMP-2, concentration 0.49 µM, read-out: Mean (dose-response, Supplementary fig 17)): 97.4%
- remaining activity at 1.95 µM (MMP-2; [1]): 96.2%
- remaining activity at 1.95 µM (MMP-2; MMP-2, concentration 1.95 µM, read-out: Mean (dose-response, Supplementary fig 17)): 96.2%
- remaining activity at 7.81 µM (MMP-2; MMP-2, concentration 7.81 µM, read-out: Mean (MMP-2 dose-response, Supplementary fig 15)): 103%
- remaining activity at 7.81 µM (MMP-2; MMP-2, concentration 7.81 µM, read-out: Mean (dose-response, Supplementary fig 17)): 103%
- remaining activity at 31.25 µM (MMP-2; MMP-2, concentration 31.25 µM, read-out: Mean (MMP-2 dose-response, Supplementary fig 15)): 92.9%
- remaining activity at 31.25 µM (MMP-2; MMP-2, concentration 31.25 µM, read-out: Mean (dose-response, Supplementary fig 17)): 92.9%
- remaining activity at 125 µM (MMP-2; MMP-2, concentration 125.00 µM, read-out: Mean (MMP-2 dose-response, Supplementary fig 15)): 97.7%
- remaining activity at 125 µM (MMP-2; MMP-2, concentration 125.00 µM, read-out: Mean (dose-response, Supplementary fig 17)): 97.7%
- remaining activity at 500 µM (MMP-2; MMP-2, concentration 500.00 µM, read-out: Mean (MMP-2 dose-response, Supplementary fig 15)): 89.5%
- remaining activity at 500 µM (MMP-2; MMP-2, concentration 500.00 µM, read-out: Mean (dose-response, Supplementary fig 17)): 89.5%
- inhibitory effect (MMP-2): No inhibitory effects could be measured; also recorded: did not exhibit meaningful activity

SMILES: Cc1cc(=O)[nH]c(-n2nc(C)c(CCC(=O)O)c2C)n1 [Compound 693]
- MMP9 3L Enrichment Fold (MMP-9): 1.167
- MMP9 3L Count (MMP-9): 1032
- MMP9 5L Enrichment Fold (MMP-9): 4.572
- MMP9 5L Count (MMP-9): 8985
- remaining activity at 0.0156098 µM (MMP-2; Figure 5a, fragment concentration 0.0156098 µM, read-out: Normalized activity (Mean)): 93%
- remaining activity at 0.0780488 µM (MMP-2; Figure 5a, fragment concentration 0.0780488 µM, read-out: Normalized activity (Mean)): 96.4%
- remaining activity at 0.390244 µM (MMP-2; Figure 5a, fragment concentration 0.390244 µM, read-out: Normalized activity (Mean)): 90.7%
- remaining activity at 1.95122 µM (MMP-2; Figure 5a, fragment concentration 1.95122 µM, read-out: Normalized activity (Mean)): 92.4%
- remaining activity at 9.7561 µM (MMP-2; Figure 5a, fragment concentration 9.7561 µM, read-out: Normalized activity (Mean)): 83.6%
- remaining activity at 48.7805 µM (MMP-2; Figure 5a, fragment concentration 48.7805 µM, read-out: Normalized activity (Mean)): 70.5%
- remaining activity at 243.902 µM (MMP-2; Figure 5a, fragment concentration 243.902 µM, read-out: Normalized activity (Mean)): 41.9%
- remaining activity at 1219.51 µM (MMP-2; Figure 5a, fragment concentration 1219.51 µM, read-out: Normalized activity (Mean)): 5.76%
- remaining activity at 0.0156 µM (MMP-2; MMP-2, concentration 0.0156 µM, read-out: Mean (MMP-2 dose-response, Supplementary fig 15)): 93%
- remaining activity at 0.08 µM (MMP-2; MMP-2, concentration 0.08 µM, read-out: Mean (MMP-2 dose-response, Supplementary fig 15)): 96.3%
- remaining activity at 0.39 µM (MMP-2; MMP-2, concentration 0.39 µM, read-out: Mean (MMP-2 dose-response, Supplementary fig 15)): 90.7%
- remaining activity at 1.95 µM (MMP-2; [1]): 92.4%
- remaining activity at 9.75 µM (MMP-2; MMP-2, concentration 9.75 µM, read-out: Mean (MMP-2 dose-response, Supplementary fig 15)): 83.6%
- remaining activity at 9.76 µM (MMP-2; MMP-2, concentration 9.76 µM, read-out: Mean (MMP-2 dose-response, Supplementary fig 15)): 83.6%
- remaining activity at 48.76 µM (MMP-2; MMP-2, concentration 48.76 µM, read-out: Mean (MMP-2 dose-response, Supplementary fig 15)): 70.5%
- remaining activity at 48.78 µM (MMP-2; MMP-2, concentration 48.78 µM, read-out: Mean (MMP-2 dose-response, Supplementary fig 15)): 70.5%
- remaining activity at 243.8 µM (MMP-2; MMP-2, concentration 243.80 µM, read-out: Mean (MMP-2 dose-response, Supplementary fig 15)): 41.9%
- remaining activity at 243.9 µM (MMP-2; MMP-2, concentration 243.90 µM, read-out: Mean (MMP-2 dose-response, Supplementary fig 15)): 41.9%
- remaining activity at 1219.51 µM (MMP-2; MMP-2, concentration 1219.51 µM, read-out: Mean (MMP-2 dose-response, Supplementary fig 15)): 5.76%
- inhibitory effect (MMP-2): high µM range
- IC50 (MMP-2; mean ± SE, n.d: not detected, Fig. 5d unit inferred, µM, read-out: IC50): 169 ± 15.8 µM
